# ChEMBL document CHEMBL1145998, “Thermal denaturation: a method to rank slow binding, high-affinity P38alpha MAP kinase inhibitors” (J Med Chem, 2003)
# Columns and labels:
# [1] = molecular target: T1, Mitogen-activated protein kinase 14 (Homo sapiens, UniProt Q16539); assay: Dissociation constant at Tm against human Mitogen-activated protein kinase p38 alpha
# [2] = molecular target: T1, Mitogen-activated protein kinase 14; assay: Dissociation constant at Tref against human Mitogen-activated protein kinase p38 alpha
# [3] = molecular target: T1, Mitogen-activated protein kinase 14; assay: Dissociation constant fit from ITC data against human Mitogen-activated protein kinase p38 alpha (constant fit)
# [4] = molecular target: T1, Mitogen-activated protein kinase 14; assay: Dissociation constant at Tm against human Mitogen-activated protein kinase p38 alpha (fluorescence exchange curve)
# T1 sequence (Q16539 whole entry): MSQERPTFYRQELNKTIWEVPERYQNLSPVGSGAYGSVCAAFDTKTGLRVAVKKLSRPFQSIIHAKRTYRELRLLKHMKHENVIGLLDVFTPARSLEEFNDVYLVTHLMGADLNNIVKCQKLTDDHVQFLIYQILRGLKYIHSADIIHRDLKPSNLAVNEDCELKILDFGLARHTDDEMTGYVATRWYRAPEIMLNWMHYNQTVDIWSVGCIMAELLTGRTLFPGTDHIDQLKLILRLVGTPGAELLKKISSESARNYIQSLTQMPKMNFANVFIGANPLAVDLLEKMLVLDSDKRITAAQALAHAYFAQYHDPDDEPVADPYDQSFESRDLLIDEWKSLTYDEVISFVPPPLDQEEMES
SMILES,Kd [1],Kd [2],Kd [3],Kd [4]
O=C(Nc1ccc(OCCN2CCOCC2)c2ccccc12)Nc1ccnn1-c1ccccc1,6070 nM,2400 nM,1180 nM,–
CC(C)(C)c1cc(NC(=O)Nc2ccc(OCCN3CCOCC3)c3ccccc23)n(-c2ccccc2)n1,5.3 nM,0.231 nM,–,0.09 nM
CC(C)c1cc(NC(=O)Nc2ccc(OCCN3CCOCC3)c3ccccc23)n(-c2ccccc2)n1,62.8 nM,3.4 nM,–,6 nM
Cc1ccc(-n2nc(C(C)(C)C)cc2NC(=O)Nc2cccc3ccccc23)cc1,118 nM,10.6 nM,–,1 nM
CC(C)(CO)c1cc(NC(=O)Nc2ccc(OCCN3CCOCC3)c3ccccc23)n(-c2ccccc2)n1,493 nM,56.4 nM,20 nM,36 nM
Cn1nc(C(C)(C)C)cc1NC(=O)Nc1ccc(OCCN2CCOCC2)c2ccccc12,210 nM,25.7 nM,10 nM,–
Cc1ccc(-n2nc(C(C)(C)C)cc2NC(=O)Nc2ccccc2)cc1,177 nM,16.8 nM,5 nM,21 nM
